Measurements published in ChEMBL document CHEMBL1795345, “Significant enhancement in radical-scavenging activity of curcuminoids conferred by acetoxy substituent at the central methylene carbon” (Bioorg Med Chem, 2011).

How the values were obtained:
[1] = tested on: Radical scavenging activity; experiment: Antioxidant activity assessed as DPPH radical scavenging activity; assay type: functional
[2] = tested on: Radical scavenging activity; experiment: Antioxidant activity assessed as reduction in compound induced DPPH radical scavenging activity at 100 uM in presence of 100 mM acetic acid measured 30 mins after mixing compound with DPPH; assay type: functional; design: scale not given: the % may be the effect or the level left

SMILES	EC50 [1] [µM]	Activity [2] [%]
C=CC/C(C(=O)/C=C/c1ccc(O)c(OC)c1)=C(O)\C=C\c1ccc(O)c(OC)c1	23.2	–
CCOC(=S)S/C(C(=O)/C=C/c1ccc(O)c(OC)c1)=C(O)\C=C\c1ccc(O)c(OC)c1	29.7	–
CO/C(C(=O)/C=C/c1ccc(O)c(OC)c1)=C(O)\C=C\c1ccc(O)c(OC)c1	30.3	–
COc1cc(/C=C/C(=O)/C(OC(C)=O)=C(O)/C=C/c2cc(O)c(O)c(OC)c2)cc(O)c1O	2.9	–
CCOC(=S)S/C(C(=O)/C=C/c1ccc(OC)c(OC)c1)=C(O)\C=C\c1ccc(OC)c(OC)c1	> 100	–
COc1ccc(/C=C/C(=O)/C(OC(C)=O)=C(O)/C=C/c2ccc(OC)c(OC)c2)cc1OC	22.1	25
CC(=O)O/C(C(=O)/C=C/c1ccc(O)cc1)=C(O)\C=C\c1ccc(O)cc1	26.3	13
COc1ccc(/C=C/C(=O)/C=C(O)/C=C/c2ccc(OC)cc2)cc1	> 100	–
O=C1O[C@H]([C@@H](O)CO)C(O)=C1O [ASCORBIC ACID]	15.7	–
CO/C(C(=O)/C=C/c1ccc(OC)c(OC)c1)=C(O)\C=C\c1ccc(OC)c(OC)c1	75.5	–
COc1ccc(/C=C/C(=O)/C(OC(C)=O)=C(O)/C=C/c2ccc(OC)cc2)cc1	32.8	25
O=C(/C=C(O)/C=C/c1ccccc1)/C=C/c1ccccc1	> 100	–
COc1ccc(/C=C/C(=O)/C(C)=C(O)/C=C/c2ccc(OC)c(OC)c2)cc1OC	> 100	–
O=C(/C=C/c1ccc(O)cc1)CC(=O)/C=C/c1ccc(O)cc1 [BISDEMETHOXYCURCUMIN]	> 100	–
COc1cc(/C=C/C(=O)/C(C)=C(O)/C=C/c2ccc(O)c(OC)c2)ccc1O	23.2	–
COc1cc(/C=C/C(=O)/C=C(O)/C=C/c2cc(O)c(O)c(OC)c2)cc(O)c1O	11.3	–
C=CC/C(C(=O)/C=C/c1ccc(OC)c(OC)c1)=C(O)\C=C\c1ccc(OC)c(OC)c1	> 100	–
COc1ccc(/C=C/C(=O)/C=C(O)/C=C/c2ccc(OC)c(OC)c2)cc1OC [DIMETHYLCURCUMIN]	> 100	–
COc1cc(/C=C/C(=O)/C(OC(C)=O)=C(O)/C=C/c2cc(OC)c(OC)c(OC)c2)cc(OC)c1OC	27.4	25
COc1cc(/C=C/C(=O)CC(=O)/C=C/c2ccc(O)c(OC)c2)ccc1O [CURCUMIN]	22.6	10
COc1cc(/C=C/C(=O)/C(OC(C)=O)=C(O)/C=C/c2ccc(O)c(OC)c2)ccc1O	8.7	10
CC(=O)O/C(C(=O)/C=C/c1ccccc1)=C(O)\C=C\c1ccccc1	47.8	25
